Test results reported in patent US9386766B2, “Insect attractant compositions” (University of Greenwich, priority 2009, dated 2016).

Experiments:
H. armigera [1] = test: Field trials in India and Bangladesh: floral bait trap catches, Trials 1-5 (Example 2); assay type: in vivo, Helicoverpa armigera; details: Trial 1; for Total catches H. armigera: Cotton
Text: (§1) In addition, five pheromone baited traps (baited with the pheromone of the key Helicoverpa and related spp.) were used as standards for each target species. Lures were changed every two to three weeks.
(§2) The choice of pheromone trap depended on local availability. In India, the preferred trap was the standard Pheromone Chemicals Ltd. plastic funnel trap, while in Bangladesh a plastic water trap was used. Pheromone lures for the trials were provided by NRI. In India and Bangladesh, H. armigera, Maruca vitrata, Earias vittella and Pectinophora gossypiella lures were provided.
(§3) The floral baits were provided in sealed lay-flat polyethylene sachets. The sachets were hung inside the traps in the same way as the pheromone lures. Traps were supported at crop height and the height was adjusted periodically to account for crop growth. Yellow-coloured traps were avoided in order to deter pollinators. Preferably, traps should be colourless or green-coloured. Trap covers were opaque. Where necessary, a killing agent was incorporated into each trap—to ensure insects were dead before opening the trap to count catches.
(§4) Trial 1 was designed to investigate the effect of altering the relative amount of the two main components, phenylacetaldhyde and salicylaldehyde on catch. The trial was laid out in cotton fields at four locations: Narakoduru and Jammikunta in Andhra Pradesh, India, and Shreepur and Jessore in Bangladesh.
In Trial 2, the standard 5-component blend used in Example 1 (96/12) was compared to: Magnet® (96/10), Li et al. (2005) (96/11) and a binary blend of phenylacetaldehyde and salicylaldehyde (96/13).
In Trial 3, a third component was added to a roughly 70:30 blend of phenylacetaldehyde:salicylaldehyde, to assess whether the additional compound made the binary blend more attractive to nocturnal Lepidoptera. The compositions of the blends tested are shown in Table 11 and the results in Table 12.
In Trial 4, two compounds were added to a 70:30 blend of phenylacetaldehyde:salicylaldehyde, to assess whether the additional compounds made the binary blend more attractive to nocturnal Lepidoptera. The compositions of the blends tested are shown in Table 13 and the results in Table 14.
In Trial 5, the three compounds, methyl 2-methoxybenzoate, linalool and limonene were added to the binary 70:30 blend of phenylacetaldehyde:salicylaldehyde in two ratios, 1:1:1 and 1:1:0.5 at 3, 9, 30 and 90% w/w of the binary blend, to assess whether the additional compounds made the binary blend more attractive to nocturnal Lepidoptera. The compositions of the blends tested are shown in Table 15 and the results in Table 16.

All Lepidoptera = test: Field trials in India: floral bait trap catches, Trials 1-5 (Example 2); assay type: in vivo; details: Trial 1; for Total catches All Lepidoptera: Cotton; for Attractiveness to the non-target species recorded: species of Table 17
Text: as §1, §2, §3, §4
In India, records were taken of all Lepidopterous species caught in the traps. The total Lepidoptera catches reflected the general trends in H. armigera catches. […] Thus blends containing between 3 and 30 percent salicylaldehyde relative to phenylacetaldehyde were on average the most attractive of the binary blends tested. […]

H. armigera [2] = test: Field trials in India and Bangladesh: floral bait trap catches, Trials 1-5 (Example 2); assay type: in vivo, Helicoverpa armigera; details: Trial 1; Jessore; Country bean
Diptera = test: Floral bait trap catches of non-target insects (Example 2); assay type: in vivo; details: Trial 1; Narakoduru, Warangal District, AP, India; Cotton
Text: as §1, §2, §3
(§5) In Tables 17 to 23 the total catches of selected Lepidoptera, Hymenoptera (Apis mellifera and Bombus spp.) and Diptera are shown.

Diaphania indica = test: as above; assay type: in vivo; details: Trial 1; Narakoduru, Warangal District, AP, India; Cotton
Text: as §1, §2, §3, §5

Lampides boeticus = test: as above; assay type: in vivo; details: Trial 1; Narakoduru, Warangal District, AP, India; Cotton
Text: as §1, §2, §3, §5

Bombus spp. = test: as above; assay type: in vivo; details: Trial 1; Narakoduru, Warangal District, AP, India; Cotton
Text: as §1, §2, §3, §5

Autographa gama = test: as above; assay type: in vivo; details: Trial 1; Narakoduru, Warangal District, AP, India; Cotton
Text: as §1, §2, §3, §5

Spodoptera litura = test: as above; assay type: in vivo; details: Trial 1; Narakoduru, Warangal District, AP, India; Cotton
Text: as §1, §2, §3, §5

Parnara guttatus = test: as above; assay type: in vivo; details: Trial 1; Narakoduru, Warangal District, AP, India; Cotton
Text: as §1, §2, §3, §5

Apis mellifera = test: as above; assay type: in vivo; details: Trial 1; Narakoduru, Warangal District, AP, India; Cotton
Text: as §1, §2, §3, §5

Other Lepidoptera = test: as above; assay type: in vivo; details: Trial 1; Narakoduru, Warangal District, AP, India; Cotton
Text: as §1, §2, §3, §5

H. armigera [3] = test: Field trials in Bangladesh: trap catch with floral odour lures (Example 1); assay type: in vivo, Helicoverpa armigera; details: Table 1; increasing relative amount of minor components; adult H. armigera
Procedure: Lures were prepared from heat-sealed low density polyethylene sachets formed from ‘layflat plastic’ tubing. In early field work, the lures were prepared on site, with each lure comprising a single compound in a dose of 0.1 ml. The release rate of compounds from the polyethylene sachets is independent of the amount of material in the sachet and so a particular dosage affects longevity only. Longevity, in turn, is dependent on ambient temperature, with an increase of 7-10° C. leading to a doubling of the release rate. Water traps were placed at crop height and trap catches were taken as a crude measure of attractiveness to the compounds. As the compounds mimic ‘floral odours’ generally, they were not expected to be species-specific in their effect.
During testing, different combinations of floral odours, together with H. armigera pheromone, were used as attractants. The chemicals were put inside sealed plastic sachets (10×5 cm) and the sachets were hung inside traps prepared from clear plastic pots (19 cm height, 15 cm dia.) with two triangular holes (12 cm base, 9 cm height) at opposite sides. The traps were set at 1 m height with an inter-trap distance of 10 m. Insects that were trapped by the lures were collected, identified and recorded at weekly intervals.

[4] = test system: female Helicoverpa armigera; details: Pawar et al., 1993; cited from earlier work

SMILES | Attractiveness to H. armigera (H. armigera [1]) | Total catches H. armigera (H. armigera [1]; Jammikunta KVK) | Total catches H. armigera (H. armigera [1]; Jessore) | Total catches H. armigera (H. armigera [1]; Narakoduru, Guntur) | Total catches H. armigera (H. armigera [1]; Shreepur) | Total catches All Lepidoptera (All Lepidoptera; Jammikunta KVK) | Total catches All Lepidoptera (All Lepidoptera; Narakoduru, Guntur) | Attractiveness to the non-target species recorded (All Lepidoptera) | Total catches H. armigera (H. armigera [2]) | Total catches Diptera (Diptera) | Total catches Diaphania indica (Diaphania indica) | Total catches Lampides boeticus (Lampides boeticus) | Total catches Bombus spp. (Bombus spp.) | Total catches Autogr. gama (Autographa gama) | Total catches Spodopt. litura (Spodoptera litura) | Total catches Parnara guttat. (Parnara guttatus) | Total catches Apis mellifera (Apis mellifera) | Total catches Other Lepidop. (Other Lepidoptera) | H. armigera Catch (H. armigera [3]) | Attraction of female Helicoverpa armigera [4]
O=Cc1ccccc1O [96/01, salicylaldehyde] | attractive | 0 | 16 | 0 | 1 | 3 | 8 | unattractive | 3 | 1 | 1 | 0 | 0 | 0 | 1 | 0 | 10 | 6 |  | 
O=CCc1ccccc1 [96/09, phenylacetaldehyde] |  | 1 | 30 | 1 | 20 | 15 | 94 | attractive | 0 | 8 | 13 | 1 | 1 | 12 | 1 | 14 | 18 | 67 | 9 | strong attractant
